From patent EP0551200A1, “Protein phosphatase inhibitors for use in therapy” (priority 1992, dated 1993)

What was measured:
WISH cells = test: Early protein phosphorylation changes in WISH cells; type: cell-based, human; details: data not shown
Method: Cell Cultures and Reagents - Human diploid fibroblasts, FS-4, 2343 gifts from Dr. J. Vilcek (New York University). They were grown in tissue culture flasks and maintained with minimal essential medium (MEM) supplemented with 10% fetal bovine serum (Hyclone, Logan, UT, US) herein referred to as regular medium. Human WISH cells were purchased from the American Type Culture Collection. Recombinant human TNF and IL-1 with specific activities of 2 x 10⁷ units and 1 x 10⁸ units/mg protein, respectively, and of purities of ≧99% were purchased from Genzyme Corp. (Cambridge, MA, US). Phorbol 12-myristate 13-acetate, bradykinin, forskolin, dibutyryl-cyclic AMP (dBt-cAMP) and FGF were from Sigma, Okadaic acid was purchased from Biomol (Plymouth Meeting, PA, US). Radioactive [³²P]P was from Du Pont-New England Nuclear. […]
Two-dimensional Gel Electrophoresis - The lyophilized fractions (each of approximately 12 µg) were subjected to isoelectric focusing for 18,000 V/h with pH 3-10 ampholytes using the Millipore Investigator two-dimensional electrophoresis system (Millipore). […] Molecular weight marker proteins from Sigma were detected by Coomassie Blue staining and marked on the autoradiogram. ³²P-Labeled 27 hsp complex prepared from human fibroblasts heat shocked at 43°C for 30 min was also used as a marker.

Egr-1 protein = test: Immunoprecipitation of 32P-labeled Egr-1 protein from Balb/c 3T3 cells; type: cell-based, mouse; details: 2 h treatment; OA 0.5 µM, calyculin A 25 nM, 20% fetal calf serum
Method: Quiescent Balb/c 3T3 cells were labeled with [³²P]-orthophosphate and incubated with either 20% fetal calf serum or okadaic acid (0.5 µM) for 2 h as described in "Experimental Procedures" of Example 2. Egr-1 protein(s) was immunoprecipitated by anti-Egr-1 antibody (R5232) and subjected to 7.5% SDS-PAGE. The dried SDS-gel was autoradiographed. lanes C, S and OA show immunoprecipitated proteins derived from quiescent cells, serum and okadaic acid-treated cells respectively. • (B). The immunoprecipitated Egr-1 protein(s) from okadaic acid-treated [³²P]-labeled Balb/c 3T3 cells was also subjected to 2-D gel electrophoresis as previously described (Guy et al, J. Biol. Chem. 266, 14343-14352, 1991). […]
The radioactivity of the in vitro transcribed RNA was determined and equal amounts of radioactive RNA from uninduced and okadaic acid treated cells were used to hybridize to specific plasmid (5 µg) previously applied to a nylon matrix with the aid of a slot blot applicator (Schleicher & Schuell, Keene, NH, US). […]
Okadaic acid or calyculin A was then added to a final concentration of 0.5 µM or 25 nM respectively and incubated for another 2 h. […] The immunoprecipitated proteins were analyzed by 7.5% SDS-PAGE as well as by two-dimensional gel electrophoresis as described previously (Guy et al, J. Biol. Chem. 266, 14343-14352, 1991). […]

SMILES: C=C1[C@@H](O)[C@@H]2O[C@]3(CC[C@H](/C=C/[C@@H](C)[C@@H]4CC(C)=C[C@@]5(O[C@H](C[C@@](C)(O)C(=O)O)CC[C@H]5O)O4)O3)CC[C@H]2O[C@@H]1[C@@H](O)C[C@H](C)[C@H]1O[C@@]2(CCCCO2)CC[C@H]1C [okadaic acid]
- changes in early protein phosphorylation compared with TNF (in words) (WISH cells): almost identical changes
- Egr-1 phosphoprotein immunoprecipitated (in words) (Egr-1 protein): high cellular concentration of the about 100 kDa Egr-1 phosphoprotein
